Data from ChEMBL document CHEMBL1134341, “Calculation of the hydrophobicity of platinum drugs” (J Med Chem, 2001).

How the values were obtained:
[1] = The observed [pt] (mmol/mg protein) value for platinum content in cells; type: ADME
[2] = Octanol-water partition coefficient (logP) value for platinum compounds; type: physicochemical

Observed [pt] [1]	logP [2]	Substance
1.9 mM (mg of protein)-1	-0.87	AMMONIO(DICHLORO)PLATINUM(CYCLOHEXYL)AMMONIUM
17 mM (mg of protein)-1	0.86	AMMONIO(DICHLORO)[DI(BUTYLCARBONYLOXY)]PLATINUM(CYCLOHEXYL)AMMONIUM
3.5 mM (mg of protein)-1	-0.47	AMMONIO(DICHLORO)[DI(METHYLCARBONYLOXY)]PLATINUM(CYCLOHEXYL)AMMONIUM
13.5 mM (mg of protein)-1	0.47	AMMONIO(DICHLORO)[DI(PROYLCARBONYLOXY)]PLATINUM(CYCLOHEXYL)AMMONIUM
1 mM (mg of protein)-1	-2.36	CISPLATIN
